Experimental data from patent publication US8415317B2, “Adjuvant compositions and methods for enhancing immune responses to polynucleotide-based vaccines” (priority 1999, dated 2013).
Entries after “also recorded” stand apart in the source; their conditions may differ.

Tests used:
[1] = tested on: influenza nuclear protein (NP); set-up: species or system mice; conditions: mouse, in vivo
hemagglutinin (HA) = tested on: hemagglutinin (HA); set-up: species or system humans; conditions: in vivo
[2] = Tolerability of i.m. injection in the mouse model; assay type: in vivo; conditions: highest dose tested: 100 μg VR4700 plasmid+48 μg GAP-DMORIE+60 μg DPyPE per mouse
Description: All cytofectin/co-lipid formulations used in this study remained uniformly opaque for several hours after preparation at room temperature without any visible aggregation. Formulations were injected 20 min-1.5 hours after complexation.

Compound | level of antibody stimulation (GMT relative to that for pDNA alone) [1] | immune responses of human subjects, HA GMT antibody titer (hemagglutinin (HA)) | discomfort or adverse reactions when injected into mouse muscle [2] | humoral immune response, level of antibody titers from pDNA immunization [1]
CCCCCCCCCCCCCCOCC(C[N+](C)(C)CCO)OCCCCCCCCCCCCCC.[Br-] (racemic) [DMRIE, (±)-N-(2-hydroxyethyl)-N,N-dimethyl-2,3-bis(tetradecyloxy)-1-propanaminium bromide] | equally active | – | – | –
CCCC/C=C\CCCCCCCCOCC(C[N+](C)(C)CCCN)OCCCCCCCC/C=C\CCCC.[Br-] (racemic) [GAP-DMORIE, (±)-N-(3-aminopropyl)-N,N-dimethyl-2,3-bis(syn-9-tetradeceneyloxy)-1-propanaminium bromide] | markedly enhances antibody responses; also recorded: more active than either DMORIE or GAP-DMRIE | induced | did not appear to produce discomfort or result in any adverse reactions | synergistic effect to further enhance the humoral immune response
CCCCCCCCCCCCCCOCC(C[N+](C)(C)CCCN)OCCCCCCCCCCCCCC.[Br-] (racemic) [GAP-DMRIE, (±)-N-(3-aminopropyl)-N,N-dimethyl-2,3-(bis-tetradecyloxy)-1-propanaminium bromide] | no apparent advantage | – | – | –
CCCCCCCC/C=C\CCCCCCCCOCC(C[N+](C)(C)CCNC(=O)C(CCCNCCCN)NCCCN)OCCCCCCCC/C=C\CCCCCCCC.Cl.Cl.Cl.Cl.[Cl-] (stereo not shown) [DOSPA, 2,3-dioleyloxy-N-(2-(sperminecarboxamido)ethyl)-N,N-dimethyl-1-propanaminium pentahydrochloride] | less active than DORIE; also recorded: dramatically decreases the level of antibody titers relative to those seen for pDNA alone | – | – | –
